# Laboratory results: ChEMBL document CHEMBL1201862, “PubChem BioAssay data set” (2004)
#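 Briefly, cells in 96-well plates were exposed to five compound concentrations for 48 h, and endpoints were estimated by linear interpolation. GI50: concentration for 50% inhibition of growth.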 Active and inactive are the calls of the source. No stated cut-off is given here; in the data, active = GI50 up to about 1.1 µM and inactive = higher.
# Experiments:
# Test in all cases: inhibition of tumour cell growth, NCI panel, 48 h
# 786-0 = test system: 786-0
# A549 = test system: A549
# ACHN = test system: ACHN
# BT-549 = test system: BT-549
# CCRF-CEM = test system: CCRF-CEM
# COLO 205 = test system: COLO 205
# DU-145 = test system: DU-145
# HCC 2998 = test system: HCC 2998
# HCT-116 = test system: HCT-116
# HCT-15 = test system: HCT-15
# HL-60 = test system: HL-60
# HOP-62 = test system: HOP-62
# HOP-92 = test system: HOP-92
# HT-29 = test system: HT-29
# Hs-578T = test system: Hs-578T
# IGROV-1 = test system: IGROV-1
# K562 = test system: K562
# KM12 = test system: KM12
# LOX IMVI = test system: LOX IMVI
# M14 = test system: M14
# MCF7 = test system: MCF7
# MDA-MB-231 = test system: MDA-MB-231
# MDA-MB-435 = test system: MDA-MB-435
# MDA-N = test system: MDA-N
# MOLT-4 = test system: MOLT-4
# Malme-3M = test system: Malme-3M
# NCI-H226 = test system: NCI-H226
# NCI-H23 = test system: NCI-H23
# NCI-H460 = test system: NCI-H460
# NCI-H522 = test system: NCI-H522
# OVCAR-3 = test system: OVCAR-3
# OVCAR-4 = test system: OVCAR-4
# OVCAR-8 = test system: OVCAR-8
# RPMI-8226 = test system: RPMI-8226
# RXF 393 = test system: RXF 393
# SF-268 = test system: SF-268
# SF-295 = test system: SF-295
# SF-539 = test system: SF-539
# SK-MEL-28 = test system: SK-MEL-28
# SK-MEL-2 = test system: SK-MEL-2
# SK-MEL-5 = test system: SK-MEL-5
# SN12C = test system: SN12C
# SNB-19 = test system: SNB-19
# SNB-75 = test system: SNB-75
# SR = test system: SR
# SW-620 = test system: SW-620
# T47D = test system: T47D
# TK-10 = test system: TK-10
# U-251 = test system: U-251
# UACC-62 = test system: UACC-62
# UO-31 = test system: UO-31
# A498 = test system: A498
# CAKI-1 = test system: CAKI-1
# EKVX = test system: EKVX
# NCI/ADR-RES = test system: NCI/ADR-RES
# OVCAR-5 = test system: OVCAR-5
# SK-OV-3 = test system: SK-OV-3
# UACC-257 = test system: UACC-257
# PC-3 = test system: PC-3
structure (smiles),measurement,setting,value
CCCCCCCCCCCCCCCCOCC(COP(=O)([O-])OCC[n+]1ccc(N(C)C)cc1)OCC (centres undefined),GI50,786-0,18 µM (inactive)
same,GI50,A549,16.2 µM (inactive)
same,GI50,ACHN,16.8 µM (inactive)
same,GI50,BT-549,7.74 µM (inactive)
same,GI50,CCRF-CEM,10.5 µM (inactive)
same,GI50,COLO 205,13.6 µM (inactive)
same,GI50,DU-145,16.5 µM (inactive)
same,GI50,HCC 2998,13.7 µM (inactive)
same,GI50,HCT-116,11.3 µM (inactive)
same,GI50,HCT-15,18.2 µM
same,GI50,HL-60,1.52 µM (inactive)
same,GI50,HOP-62,12.3 µM (inactive)
same,GI50,HOP-92,17 µM (inactive)
same,GI50,HT-29,13.9 µM (inactive)
same,GI50,Hs-578T,17.9 µM (inactive)
same,GI50,IGROV-1,16.9 µM (inactive)
same,GI50,K562,19.3 µM (inactive)
same,GI50,KM12,0.0527 µM (active)
same,GI50,LOX IMVI,12.6 µM (inactive)
same,GI50,M14,12.4 µM (inactive)
same,GI50,MCF7,19.2 µM (inactive)
same,GI50,MDA-MB-231,8.55 µM (inactive)
same,GI50,MDA-MB-435,17.7 µM (inactive)
same,GI50,MDA-N,17 µM (inactive)
same,GI50,MOLT-4,4.52 µM (inactive)
same,GI50,Malme-3M,18.5 µM (inactive)
same,GI50,NCI-H226,17.2 µM (inactive)
same,GI50,NCI-H23,18.6 µM (inactive)
same,GI50,NCI-H460,12.1 µM (inactive)
same,GI50,NCI-H522,12.8 µM (inactive)
same,GI50,OVCAR-3,11.4 µM (inactive)
same,GI50,OVCAR-4,15.8 µM (inactive)
same,GI50,OVCAR-8,19.5 µM (inactive)
same,GI50,RPMI-8226,4.12 µM (inactive)
same,GI50,RXF 393,16.3 µM (inactive)
same,GI50,SF-268,10.8 µM (inactive)
same,GI50,SF-295,16.5 µM (inactive)
same,GI50,SF-539,13.5 µM (inactive)
same,GI50,SK-MEL-28,17.6 µM (inactive)
same,GI50,SK-MEL-2,13.4 µM (inactive)
same,GI50,SK-MEL-5,17.8 µM (inactive)
same,GI50,SN12C,19.7 µM (inactive)
same,GI50,SNB-19,2.8 µM (inactive)
same,GI50,SNB-75,2.97 µM (inactive)
same,GI50,SR,4.95 µM (inactive)
same,GI50,SW-620,18.3 µM (inactive)
same,GI50,T47D,18 µM (inactive)
same,GI50,TK-10,14.9 µM (inactive)
same,GI50,U-251,11.7 µM (inactive)
same,GI50,UACC-62,12.7 µM (inactive)
same,GI50,UO-31,15.5 µM (inactive)
NS(=O)(=O)c1nnc(NS(=O)(=O)c2ccc(F)cc2)s1,GI50,786-0,> 100 µM (inactive)
same,GI50,A498,> 100 µM (inactive)
same,GI50,A549,> 100 µM (inactive)
same,GI50,ACHN,> 100 µM (inactive)
same,GI50,BT-549,> 100 µM (inactive)
same,GI50,CAKI-1,> 100 µM (inactive)
same,GI50,CCRF-CEM,> 100 µM (inactive)
same,GI50,COLO 205,> 100 µM (inactive)
same,GI50,DU-145,> 100 µM (inactive)
same,GI50,EKVX,> 100 µM (inactive)
same,GI50,HCC 2998,> 100 µM (inactive)
same,GI50,HCT-116,> 100 µM (inactive)
same,GI50,HCT-15,> 100 µM
same,GI50,HOP-62,> 100 µM (inactive)
same,GI50,HOP-92,> 100 µM (inactive)
same,GI50,Hs-578T,> 100 µM (inactive)
same,GI50,K562,> 100 µM (inactive)
same,GI50,KM12,> 100 µM (inactive)
same,GI50,LOX IMVI,> 100 µM (inactive)
same,GI50,M14,> 100 µM (inactive)
same,GI50,MCF7,> 100 µM (inactive)
same,GI50,MDA-MB-231,> 100 µM (inactive)
same,GI50,MDA-MB-435,> 100 µM (inactive)
same,GI50,MDA-N,> 100 µM (inactive)
same,GI50,MOLT-4,> 100 µM (inactive)
same,GI50,NCI-H226,> 100 µM (inactive)
same,GI50,NCI-H23,> 100 µM (inactive)
same,GI50,NCI-H460,> 100 µM (inactive)
same,GI50,NCI/ADR-RES,> 100 µM (inactive)
same,GI50,OVCAR-3,> 100 µM (inactive)
same,GI50,OVCAR-4,> 100 µM (inactive)
same,GI50,OVCAR-5,> 100 µM (inactive)
same,GI50,OVCAR-8,> 100 µM (inactive)
same,GI50,RPMI-8226,> 100 µM (inactive)
same,GI50,RXF 393,> 100 µM (inactive)
same,GI50,SF-268,> 100 µM (inactive)
same,GI50,SF-295,> 100 µM (inactive)
same,GI50,SF-539,> 100 µM (inactive)
same,GI50,SK-MEL-28,> 100 µM (inactive)
same,GI50,SK-MEL-2,> 100 µM (inactive)
same,GI50,SK-MEL-5,> 100 µM (inactive)
same,GI50,SK-OV-3,> 100 µM (inactive)
same,GI50,SN12C,> 100 µM (inactive)
same,GI50,SNB-19,> 100 µM (inactive)
same,GI50,SR,> 100 µM (inactive)
same,GI50,SW-620,> 100 µM (inactive)
same,GI50,T47D,> 100 µM (inactive)
same,GI50,TK-10,> 100 µM (inactive)
same,GI50,U-251,> 100 µM (inactive)
same,GI50,UACC-257,> 100 µM (inactive)
same,GI50,UACC-62,> 100 µM (inactive)
same,GI50,UO-31,> 100 µM (inactive)
CC/C=N\N1C(N)=C(C#N)C(C#N)(C#N)C1CC (centres undefined),GI50,786-0,> 100 µM (inactive)
same,GI50,A498,> 100 µM (inactive)
same,GI50,A549,> 100 µM (inactive)
same,GI50,ACHN,> 100 µM (inactive)
same,GI50,BT-549,> 100 µM (inactive)
same,GI50,CAKI-1,> 100 µM (inactive)
same,GI50,CCRF-CEM,36.1 µM (inactive)
same,GI50,COLO 205,> 100 µM (inactive)
same,GI50,DU-145,> 100 µM (inactive)
same,GI50,EKVX,> 100 µM (inactive)
same,GI50,HCC 2998,> 100 µM (inactive)
same,GI50,HCT-116,10.8 µM (inactive)
same,GI50,HCT-15,54.2 µM
same,GI50,HL-60,35.8 µM (inactive)
same,GI50,HOP-62,> 100 µM (inactive)
same,GI50,HT-29,28.8 µM (inactive)
same,GI50,Hs-578T,> 100 µM (inactive)
same,GI50,IGROV-1,63.1 µM (inactive)
same,GI50,K562,52.7 µM (inactive)
same,GI50,KM12,> 100 µM (inactive)
same,GI50,LOX IMVI,49 µM (inactive)
same,GI50,M14,> 100 µM (inactive)
same,GI50,MCF7,36.5 µM (inactive)
same,GI50,MDA-MB-231,> 100 µM (inactive)
same,GI50,MDA-MB-435,50.6 µM (inactive)
same,GI50,MDA-N,53.5 µM (inactive)
same,GI50,MOLT-4,39 µM (inactive)
same,GI50,Malme-3M,> 100 µM (inactive)
same,GI50,NCI-H226,> 100 µM (inactive)
same,GI50,NCI-H23,> 100 µM (inactive)
same,GI50,NCI-H522,> 100 µM (inactive)
same,GI50,NCI/ADR-RES,92 µM (inactive)
same,GI50,OVCAR-3,> 100 µM (inactive)
same,GI50,OVCAR-4,91.2 µM (inactive)
same,GI50,OVCAR-5,> 100 µM (inactive)
same,GI50,OVCAR-8,44.9 µM (inactive)
same,GI50,PC-3,> 100 µM (inactive)
same,GI50,RPMI-8226,83 µM (inactive)
same,GI50,RXF 393,> 100 µM (inactive)
same,GI50,SF-268,> 100 µM (inactive)
same,GI50,SF-295,> 100 µM (inactive)
same,GI50,SF-539,26.2 µM (inactive)
same,GI50,SK-MEL-28,56.2 µM (inactive)
same,GI50,SK-MEL-2,> 100 µM (inactive)
same,GI50,SK-MEL-5,53.1 µM (inactive)
same,GI50,SK-OV-3,> 100 µM (inactive)
same,GI50,SN12C,> 100 µM (inactive)
same,GI50,SNB-19,> 100 µM (inactive)
same,GI50,SNB-75,81.8 µM (inactive)
same,GI50,SW-620,61.7 µM (inactive)
same,GI50,T47D,> 100 µM (inactive)
same,GI50,TK-10,> 100 µM (inactive)
same,GI50,U-251,58.6 µM (inactive)
same,GI50,UACC-257,> 100 µM (inactive)
same,GI50,UACC-62,59.4 µM (inactive)
same,GI50,UO-31,> 100 µM (inactive)
